In patent publication US11560372B2, “Heterocyclic compounds useful as modulators of acetylcholine receptors” (TAKEDA PHARMACEUTICAL COMPANY LIMITED, priority 2017, dated 2023):

How the values were obtained:
[1] = biological target: T1, human M1 receptor (hCHRM1) (Homo sapiens, UniProt P11229); test: Measurement of M1 receptor positive allosteric modulator (M1PAM) activity, calcium fluorescence in CHO-K1 cells; assay type: cell-based; conditions: for activity (%) at 10 μM: 10 μM test compound, 100% = acetylcholine final concentration 1 μM, 0% = DMSO; for EC50: inflection point of concentration-dependent curve, in the presence of acetylcholine at EC20 concentration (final 0.8-1.0 nM), read-out: IP value
T1 construct: expressed in transfected cells
T1 sequence (P11229 1-460): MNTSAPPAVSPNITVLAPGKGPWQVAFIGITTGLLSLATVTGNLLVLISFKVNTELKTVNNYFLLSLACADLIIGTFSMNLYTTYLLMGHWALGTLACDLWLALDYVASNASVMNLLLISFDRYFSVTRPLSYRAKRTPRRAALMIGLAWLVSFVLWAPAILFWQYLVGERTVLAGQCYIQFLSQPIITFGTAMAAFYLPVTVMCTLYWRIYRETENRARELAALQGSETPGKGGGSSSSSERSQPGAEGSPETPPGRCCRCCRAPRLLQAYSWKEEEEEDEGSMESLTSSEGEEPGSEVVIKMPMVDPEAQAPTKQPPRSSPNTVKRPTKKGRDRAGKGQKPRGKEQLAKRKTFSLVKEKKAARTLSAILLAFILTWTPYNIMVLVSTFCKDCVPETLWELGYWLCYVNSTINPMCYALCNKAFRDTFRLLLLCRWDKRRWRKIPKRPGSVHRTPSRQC
Protocol: Measurement of M1 Receptor Positive Allosteric Modulator (M1PAM) Activity
The activity of a test compound in the presence of acetylcholine at EC20 concentration (final concentration 0.8-1.0 nM), which affords an action corresponding to about 20% of the maximum activity, was measured as PAM activity. The method is as follows. CHO-K1 cells stably expressing a human M1 receptor (hCHRM1) were plated on a 384-well black clear bottom plate (BD Falcon) at 5,000 cells/well, and cultured in an incubator at 37° C., 5% CO2 for 1 day. The medium in the cell plate was removed, and assay buffer A containing calcium indicator (Recording medium (DOJINDO LABORATORIES), 0.1% BSA (Wako Pure Chemical Industries, Ltd.), 2.5 μg/mL Fluo-4 AM (DOJINDO LABORATORIES), 0.08% Pluronic F127 (DOJINDO LABORATORIES), 1.25 mM probenecid (DOJINDO LABORATORIES)) was added at 30 μL/well. The cells were left standing in the incubator at 37° C., 5% CO2 for 30 min, and further left standing at room temperature for 30 min. A test compound prepared by diluting with assay buffer B (HBSS (Invitrogen), 20 mM HEPES (Invitrogen), 0.1% BSA) containing 3.2-4.0 nM acetylcholine was added at 10 μL/well, and the fluorescence was measured by FDSS/pCELL (Hamamatsu Photonics K.K.) for 1 min every for 1 second. With the definition that the amount of change in the fluorescence on addition of acetylcholine (final concentration 1 μM) is 100% and that on addition of DMSO instead of a test compound is 0%, the activity (%) of the test compound was calculated, and the inflection point in the concentration-dependent curve of the test compound was calculated as IP values.

[2] = biological target: T2, MDR1 (Homo sapiens, UniProt P08183); test: MDR1 membrane permeability test; assay type: in vitro ADME; conditions: pH 7.4, efflux ratio (ER), Papp B to A / A to B, human MDR1-expressing LLC-PK1 cells, read-out: MDR1 substrate screening 1 μM (MDRSUB1)/Ratio (NUMBER)
T2 construct: expressed in transfected cells
Outline: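 Human MDR1-expressing LLC-PK1 cells were grown for 3 days on 96-well polyethylene terephthalate Transwell supports (0.4 μm pores, 0.143 cm^2) seeded at 3.45×10^4 cells/well. After a 30 min preincubation in M199 medium with 10 mmol/L HEPES and 1% BSA (pH 7.4), drug was added apically or basolaterally. After 1 hr at 37° C, the opposite side was sampled and analyzed by LC-MS/MS. Efflux ratio was calculated from Papp B to A versus A to B.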

T2 sequence (P08183 whole entry): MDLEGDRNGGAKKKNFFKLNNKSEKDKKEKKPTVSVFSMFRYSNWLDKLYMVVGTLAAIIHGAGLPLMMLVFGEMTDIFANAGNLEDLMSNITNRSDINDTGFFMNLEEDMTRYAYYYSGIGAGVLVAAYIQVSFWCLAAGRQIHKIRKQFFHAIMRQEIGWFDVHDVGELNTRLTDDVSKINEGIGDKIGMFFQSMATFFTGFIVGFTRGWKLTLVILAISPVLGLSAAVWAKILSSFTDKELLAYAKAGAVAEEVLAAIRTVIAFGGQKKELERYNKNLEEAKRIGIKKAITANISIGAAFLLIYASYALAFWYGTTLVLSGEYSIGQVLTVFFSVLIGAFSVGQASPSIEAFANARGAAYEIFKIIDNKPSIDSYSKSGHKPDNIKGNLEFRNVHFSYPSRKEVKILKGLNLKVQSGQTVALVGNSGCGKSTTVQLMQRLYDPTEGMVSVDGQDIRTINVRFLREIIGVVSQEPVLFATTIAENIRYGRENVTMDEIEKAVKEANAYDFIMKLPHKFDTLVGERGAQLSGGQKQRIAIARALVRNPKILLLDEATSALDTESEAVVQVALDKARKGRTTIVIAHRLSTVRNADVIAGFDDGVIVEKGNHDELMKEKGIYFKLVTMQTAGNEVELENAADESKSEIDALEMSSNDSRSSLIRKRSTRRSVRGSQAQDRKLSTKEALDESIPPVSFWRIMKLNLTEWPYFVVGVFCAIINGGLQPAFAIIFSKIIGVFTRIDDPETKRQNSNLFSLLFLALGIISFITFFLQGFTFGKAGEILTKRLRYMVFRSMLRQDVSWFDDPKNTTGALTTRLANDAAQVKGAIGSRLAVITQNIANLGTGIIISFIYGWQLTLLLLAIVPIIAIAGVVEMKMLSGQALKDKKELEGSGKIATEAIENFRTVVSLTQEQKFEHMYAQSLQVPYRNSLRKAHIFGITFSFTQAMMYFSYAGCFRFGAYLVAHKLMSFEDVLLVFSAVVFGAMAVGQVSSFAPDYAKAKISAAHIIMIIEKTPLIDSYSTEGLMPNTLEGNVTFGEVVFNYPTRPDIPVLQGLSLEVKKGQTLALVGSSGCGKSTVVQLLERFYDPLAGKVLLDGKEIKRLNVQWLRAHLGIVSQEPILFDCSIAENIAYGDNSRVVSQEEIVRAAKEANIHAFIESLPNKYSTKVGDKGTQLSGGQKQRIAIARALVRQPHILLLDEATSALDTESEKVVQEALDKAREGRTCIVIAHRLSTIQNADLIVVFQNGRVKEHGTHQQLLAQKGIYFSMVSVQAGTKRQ

SMILES | activity (%) at 10 μM [1] | EC50 [1] | efflux ratio at 1 hr, 1 μM [2]
COCCNC(=O)c1ccc(Cc2cc3c(=O)n([C@H]4CCOC[C@@H]4O)cnc3c(C)c2C)cc1 [Example 49, 1,5-anhydro-2,3-dideoxy-3-(6-(4-((2-methoxyethyl)carbamoyl)benzyl)-7,8-dimethyl-4-oxoquinazolin-3 (4H)-yl)-L-threo-pentitol] | 101% | 1.1 nM | 20
Cc1c(Cc2ccc(-c3ccn(C)n3)nc2)cc2c(=O)n([C@H]3CCOC[C@@H]3O)nnc2c1C [Example 59, 1,5-anhydro-2,3-dideoxy-3-(7,8-dimethyl-6-((6-(1-methyl-1H-pyrazol-3-yl)pyridin-3-yl)methyl)-4-oxo-1,2,3-benzotriazin-3 (4H)-yl)-L-threo-pentitol] | 108% | 2.6 nM | 3.7
Cc1c(Cc2ccc(-c3cnn(C)c3)cc2)cc2c(=O)n([C@H]3CCOC[C@@H]3O)cnc2c1F [Example 24, 1,5-anhydro-2,3-dideoxy-3-(8-fluoro-7-methyl-6-(4-(1-methyl-1H-pyrazol-4-yl)benzyl)-4-oxoquinazolin-3(4H)-yl)-L-threo-pentitol] | 108% | 3.7 nM | 3.4
COc1cc2ncn([C@H]3CCOC[C@@H]3O)c(=O)c2cc1Cc1ccc(-c2cnn(C)c2)nc1 [Example 58, 1,5-anhydro-2,3-dideoxy-3-(7-methoxy-6-((6-(1-methyl-1H-pyrazol-4-yl)pyridin-3-yl)methyl)-4-oxoquinazolin-3 (4H)-yl)-L-threo-pentitol] | 103% | 1.9 nM | 19
COCCn1cc(-c2ccc(Cc3cc4c(=O)n([C@H]5CCOC[C@@H]5O)cnc4c(C)c3C)cn2)cn1 [Example 73, 1,5-anhydro-2,3-dideoxy-3-(6-((6-(1-(2-methoxyethyl)-1H-pyrazol-4-yl)pyridin-3-yl)methyl)-7,8-dimethyl-4-oxoquinazolin-3(4H)-yl)-L-threo-pentitol] | 109% | 1.4 nM | 18
Cc1c(Cc2ccc(C(=O)NC3CCOC3)cc2)cc2c(=O)n([C@H]3CCOC[C@@H]3O)cnc2c1C (stereo partly drawn) [Example 33, 1,5-anhydro-2,3-dideoxy-3-(7,8-dimethyl-4-oxo-6-(4-(tetrahydrofuran-3-ylcarbamoyl)benzyl)quinazolin-3 (4H)-yl)-L-threo-pentitol] | 111% | 1.8 nM | 20
COC1CN(C(=O)c2ccc(Cc3cc4c(=O)n([C@H]5CCOC[C@@H]5O)cnc4c(C)c3C)cc2)C1 [Example 41, 1,5-anhydro-2,3-dideoxy-3-(6-(4-((3-methoxyazetidin-1-yl)carbonyl)benzyl)-7,8-dimethyl-4-oxoquinazolin-3 (4H)-yl)-L-threo-pentitol] | 108% | 11 nM | 13
Cc1c(Cc2ccc(C(=O)NCC3(O)CC3)c(F)c2)cc2c(=O)n([C@H]3CCOC[C@@H]3O)cnc2c1C [Example 76, 1,5-anhydro-2,3-dideoxy-3-(6-(3-fluoro-4-(((1-hydroxycyclopropyl)methyl)-carbamoyl)benzyl)-7,8-dimethyl-4-oxoquinazolin-3 (4H)-yl)-L-threo-pentitol] | 106% | 1.9 nM | 15
Cc1c(Cc2ccc(-c3ccn(C)n3)nc2)cc2c(=O)n([C@H]3CCOC[C@@H]3O)cnc2c1C [Example 1, 1,5-anhydro-2,3-dideoxy-3-(7,8-dimethyl-6-((6-(1-methyl-1H-pyrazol-3-yl)pyridin-3-yl)methyl)-4-oxoquinazolin-3(4H)-yl)-L-threo-pentitol] | 101% | 2.1 nM | 4.7
Cc1c(Cc2ccc(C(=O)NCCN3CCCC3=O)c(F)c2)cc2c(=O)n([C@H]3CCOC[C@@H]3O)cnc2c1C [Example 77, 1,5-anhydro-2,3-dideoxy-3-(6-(3-fluoro-4-((2-(2-oxopyrrolidin-1-yl)ethyl)carbamoyl)benzyl)-7,8-dimethyl-4-oxoquinazolin-3 (4H)-yl)-L-threo-pentitol] | 107% | 2 nM | 32
Cc1c(Cc2ccc(-c3cnn(C)c3)cc2)cc2c(=O)n([C@H]3CCOC[C@@H]3O)cnc2c1C [Example 9, 1,5-anhydro-2,3-dideoxy-3-(7,8-dimethyl-6-(4-(1-methyl-1H-pyrazol-4-yl)benzyl)-4-oxoquinazolin-3(4H)-yl)-L-threo-pentitol] | 109% | 3.3 nM | 2.1
Cc1c(Cc2ccc(-c3cnn(C)c3)nc2)cc2c(=O)n([C@H]3CCOC[C@@H]3O)cnc2c1Cl [Example 11, 1,5-anhydro-3-(8-chloro-7-methyl-6-((6-(1-methyl-1H-pyrazol-4-yl)pyridin-3-yl)methyl)-4-oxoquinazolin-3(4H)-yl)-2,3-dideoxy-L-threo-pentitol] | 100% | 0.91 nM | 17
Cc1c(Cc2ccc(C(=O)NC3CC(F)(F)C3)cc2)cc2c(=O)n([C@H]3CCOC[C@@H]3O)cnc2c1C [Example 25, 1,5-anhydro-2,3-dideoxy-3-(6-(4-((3,3-difluorocyclobutyl)-carbamoyl)benzyl)-7,8-dimethyl-4-oxoquinazolin-3(4H)-yl)-L-threo-pentitol] | 109% | 1.9 nM | 16
COc1cc2ncn([C@H]3CCOC[C@@H]3O)c(=O)c2cc1Cc1ccc(-c2cn(C)cn2)cc1 [Example 61, 1,5-anhydro-2,3-dideoxy-3-(7-methoxy-6-(4-(1-methyl-1H-imidazol-4-yl)benzyl)-4-oxoquinazolin-3 (4H)-yl)-L-threo-pentitol] | 108% | 2.2 nM | 32
CCOCCNC(=O)c1ccc(Cc2cc3c(=O)n([C@H]4CCOC[C@@H]4O)cnc3c(C)c2C)cc1F [Example 85, 1,5-anhydro-2,3-dideoxy-3-(6-(4-((2-ethoxyethyl)carbamoyl)-3-fluorobenzyl)-7,8-dimethyl-4-oxoquinazolin-3(4H)-yl)-L-threo-pentitol] | 107% | 2.1 nM | 10
Cc1c(Cc2ccc(-c3cn(C)nn3)cc2)cc2c(=O)n([C@H]3CCOC[C@@H]3O)cnc2c1C [Example 8, 1,5-anhydro-2,3-dideoxy-3-(7,8-dimethyl-6-(4-(1-methyl-1H-1,2,3-triazol-4-yl)benzyl)-4-oxoquinazolin-3(4H)-yl)-L-threo-pentitol] | 97% | 1.4 nM | 4.8
CNC(=O)c1ccc(Cc2cc3c(=O)n([C@H]4CCOC[C@@H]4O)cnc3c(C)c2C)cc1 [Example 18, 1,5-anhydro-2,3-dideoxy-3-(7,8-dimethyl-6-(4-(methylcarbamoyl)benzyl)-4-oxoquinazolin-3(4H)-yl)-L-threo-pentitol] | 106% | 1 nM | 24
Cc1c(Cc2ccc(C(=O)NCC3CC3)cc2)cc2c(=O)n([C@H]3CCOC[C@@H]3O)cnc2c1C [Example 29, 1,5-anhydro-3-(6-(4-((cyclopropylmethyl)carbamoyl)-benzyl)-7,8-dimethyl-4-oxoquinazolin-3 (4H)-yl)-2,3-dideoxy-L-threo-pentitol] | 112% | 1.6 nM | 12
